Measured values published in ChEMBL document CHEMBL4311992, “Discovery of 3-(((9H-purin-6-yl)amino)methyl)-4,6-dimethylpyridin-2(1H)-one derivatives as novel tubulin polymerization inhibitors for treatment of cancer” (Eur J Med Chem, 2019).
Activity calls are given as the source filed them. The calls are words filed in the database; no cut-off is given here.

How the values were obtained:
Tubulin (Homo sapiens) = Tubulin (Homo sapiens) (UniProt P68371+Q9H4B7+P0DPH7+P68366+Q13509+Q71U36+P04350+Q3ZCM7+P07437+P68363+Q9BQE3+Q6PEY2+Q13885+Q9BVA1+Q9BUF5); assay: Disruption of microtubule network in human SW620 cells assessed as microtubule condensation at 50 nM incubated for 18 hrs by FITC/DAPI staining-based confocal microscopic analysis; assay type: cell-based
[1] = system: Epidermal growth factor receptor (Homo sapiens), P00533 [L858R,T790M]; assay: Inhibition of recombinant human EGFR T790M/L858R mutant (696 to end residues) assessed as residual activity at 10 uM using GGMEDIYFEFMGGKKK as substrate measured after 40 mins in presence of [gamma33P]ATP by scintillation counting method
[2] = molecular target: Ephrin type-A receptor 7 (Homo sapiens) (UniProt Q15375); assay: Inhibition of recombinant human EphA7 (613 to 909 residues) assessed as residual activity at 10 uM using KTFCGTPEYLAPEVRREPRILSEEEQEMFRDFDYIADWC as substrate measured after 40 mins in presence of [gamma33P]ATP by scintillation counting method
[3] = molecular target: Tyrosine-protein kinase ITK/TSK (Homo sapiens) (UniProt Q08881); assay: Inhibition of recombinant human ITK (352 to 617 residues) assessed as residual activity at 10 uM using myelin basic protein as substrate measured after 40 mins in presence of [gamma33P]ATP by scintillation counting method
[4] = molecular target: Wee1-like protein kinase (Homo sapiens) (UniProt P30291); assay: Inhibition of human Wee1 (214 to end residues) using LSNLYHQGKFLQTFCGSPLYRRR as substrate measured after 40 mins in presence of [gamma33P]ATP by scintillation counting method; set-up: scale not given: the % may be the effect or the level left
[5] = system: Glycogen synthase kinase-3 beta (Homo sapiens), P49841 [UNDEFINED MUTATION]; assay: Inhibition of recombinant human GSK3beta H350L mutant (2 to end residues) assessed as residual activity at 10 uM using phospho GS2 peptide as substrate measured after 40 mins in presence of [gamma33P]ATP by scintillation counting method
HCT-116 [6] = assay: Induction of apoptosis in human HCT116 cells assessed as increase in Bax expression up to 200 nM measured after 48 hrs by Western blot analysis; assay type: functional, cell-based
HCT-116 [7] = assay: Induction of apoptosis in human HCT116 cells assessed as necrotic cells at 25 nM measured after 48 hrs by Annexin V-FITC/propidium iodide staining-based flow cytometry (reference value: 1.16%); assay type: functional
[8] = molecular target: Beta-adrenergic receptor kinase 1 (Homo sapiens) (UniProt P25098); assay: Inhibition of recombinant full-length human GRK2 assessed as residual activity at 10 uM using casein as substrate measured after 40 mins in presence of [gamma33P]ATP by scintillation counting method
[9] = molecular target: Hepatocyte growth factor receptor (Homo sapiens) (UniProt P08581); assay: Inhibition of recombinant human MET A1209G/V1290L mutant (974 to end residues) assessed as residual activity at 10 uM using KKKGQEEEYVFIE as substrate measured after 40 mins in presence of [gamma33P]ATP by scintillation counting method
[10] = molecular target: Serine/threonine-protein kinase Nek11 (Homo sapiens) (UniProt Q8NG66); assay: Inhibition of recombinant full-length human NEK11 assessed as residual activity at 10 uM using myelin basic protein as substrate measured after 40 mins in presence of [gamma33P]ATP by scintillation counting method
[11] = system: Serine/threonine-protein kinase B-raf (Homo sapiens), P15056 [V600E]; assay: Inhibition of recombinant human BRAF V599E mutant (416 to end residues) assessed as residual activity at 10 uM using myelin basic protein as substrate measured after 40 mins in presence of [gamma33P]ATP by scintillation counting method
Homo sapiens = organism: Homo sapiens; assay: Inhibition of recombinant full-length human PI3K p120gamma R459Q mutant assessed as residual activity at 10 uM using phosphatidylinositol-4, 5-bisphosphate as substrate measured after 40 mins by fluorescence assay
[12] = molecular target: Leukocyte tyrosine kinase receptor (Homo sapiens) (UniProt P29376); assay: Inhibition of recombinant human LTK (450 to end residues) assessed as residual activity at 10 uM using GEEPLYWSFPAKKK as substrate measured after 40 mins in presence of [gamma33P]ATP by scintillation counting method
[13] = molecular target: Calcium/calmodulin-dependent protein kinase type II subunit beta (Homo sapiens) (UniProt Q13554); assay: Inhibition of recombinant full-length human CaMK2beta (1 to 315 residues) assessed as residual activity at 10 uM using calmodulin as substrate measured after 40 mins in presence of [gamma33P]ATP by scintillation counting method
[14] = molecular target: Cyclin-dependent kinase 14/Cyclin-Y (Homo sapiens) (UniProt O94921+Q8ND76); assay: Inhibition of human CDK14/cyclinY assessed as residual activity at 10 uM by radiometric method; assay type: protein-complex assay
[15] = molecular target: Cyclin-dependent kinase-like 1 (Homo sapiens) (UniProt Q00532); assay: Inhibition of recombinant human CDKL1 (1 to 303 residues) assessed as residual activity at 10 uM using RRRFRPASPLRGP as substrate measured after 120 mins in presence of [gamma33P]ATP by scintillation counting method
[16] = molecular target: Dual specificity tyrosine-phosphorylation-regulated kinase 1A (Homo sapiens) (UniProt Q13627); assay: Inhibition of recombinant full-length human DYRK1A assessed as residual activity at 10 uM using RRRFRPASPLRGPPK as substrate measured after 40 mins in presence of [gamma33P]ATP by scintillation counting method
[17] = molecular target: Mitogen-activated protein kinase kinase kinase 20 (Homo sapiens) (UniProt Q9NYL2); assay: Inhibition of recombinant full-length human ZAK assessed as residual activity at 10 uM using MBP as substrate measured after 40 mins in presence of [gamma33P]ATP by scintillation counting method
[18] = molecular target: Protein kinase C gamma type (Homo sapiens) (UniProt P05129); assay: Inhibition of recombinant full-length human PKCgamma assessed as residual activity at 10 uM using histone H1 as substrate measured after 40 mins in presence of [gamma33P]ATP by scintillation counting method
[19] = molecular target: Activin receptor type-1 (Homo sapiens) (UniProt Q04771); assay: Inhibition of recombinant human ALK2 (142 to end residues) assessed as residual activity at 10 uM using casein as substrate measured after 40 mins in presence of [gamma33P]ATP by scintillation counting method
HCT-116 [20] = assay: Induction of apoptosis in human HCT116 cells assessed as early apoptotic cells at 50 nM measured after 48 hrs by Annexin V-FITC/propidium iodide staining-based flow cytometry (reference value: 0.418%); assay type: functional
[21] = molecular target: Proto-oncogene tyrosine-protein kinase Src (Homo sapiens) (UniProt P12931); assay: Inhibition of recombinant full-length human SRC assessed as residual activity at 10 uM using Cdc2 peptide as substrate measured after 40 mins in presence of [gamma33P]ATP by scintillation counting method

Activin receptor type-1 (Homo sapiens), sequence (Q04771 whole entry): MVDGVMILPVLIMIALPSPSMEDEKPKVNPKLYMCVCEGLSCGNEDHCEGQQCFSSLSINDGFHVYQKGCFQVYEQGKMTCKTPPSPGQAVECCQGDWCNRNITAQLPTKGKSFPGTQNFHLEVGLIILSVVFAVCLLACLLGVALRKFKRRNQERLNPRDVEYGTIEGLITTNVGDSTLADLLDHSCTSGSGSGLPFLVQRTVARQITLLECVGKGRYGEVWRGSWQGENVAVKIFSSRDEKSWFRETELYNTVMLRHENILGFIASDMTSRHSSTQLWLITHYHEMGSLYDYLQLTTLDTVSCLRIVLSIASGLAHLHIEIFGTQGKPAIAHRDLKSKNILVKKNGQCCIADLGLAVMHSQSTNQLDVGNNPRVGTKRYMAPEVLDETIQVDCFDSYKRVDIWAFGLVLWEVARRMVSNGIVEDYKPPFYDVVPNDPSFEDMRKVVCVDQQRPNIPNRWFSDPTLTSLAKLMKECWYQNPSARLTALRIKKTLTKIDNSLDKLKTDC
Cyclin-dependent kinase-like 1 (Homo sapiens), sequence (Q00532 whole entry, the tested form may be a part): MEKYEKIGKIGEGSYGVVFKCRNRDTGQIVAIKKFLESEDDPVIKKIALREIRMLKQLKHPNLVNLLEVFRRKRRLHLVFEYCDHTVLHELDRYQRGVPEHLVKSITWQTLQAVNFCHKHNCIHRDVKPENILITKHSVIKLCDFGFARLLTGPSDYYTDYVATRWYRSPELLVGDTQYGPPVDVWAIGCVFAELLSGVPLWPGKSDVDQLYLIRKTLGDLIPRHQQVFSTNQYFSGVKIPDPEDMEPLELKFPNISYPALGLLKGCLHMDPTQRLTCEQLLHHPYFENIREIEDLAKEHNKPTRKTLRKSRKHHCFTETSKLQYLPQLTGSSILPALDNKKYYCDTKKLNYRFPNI
Calcium/calmodulin-dependent protein kinase type II subunit beta (Homo sapiens), sequence (Q13554 whole entry, the tested form may be a part): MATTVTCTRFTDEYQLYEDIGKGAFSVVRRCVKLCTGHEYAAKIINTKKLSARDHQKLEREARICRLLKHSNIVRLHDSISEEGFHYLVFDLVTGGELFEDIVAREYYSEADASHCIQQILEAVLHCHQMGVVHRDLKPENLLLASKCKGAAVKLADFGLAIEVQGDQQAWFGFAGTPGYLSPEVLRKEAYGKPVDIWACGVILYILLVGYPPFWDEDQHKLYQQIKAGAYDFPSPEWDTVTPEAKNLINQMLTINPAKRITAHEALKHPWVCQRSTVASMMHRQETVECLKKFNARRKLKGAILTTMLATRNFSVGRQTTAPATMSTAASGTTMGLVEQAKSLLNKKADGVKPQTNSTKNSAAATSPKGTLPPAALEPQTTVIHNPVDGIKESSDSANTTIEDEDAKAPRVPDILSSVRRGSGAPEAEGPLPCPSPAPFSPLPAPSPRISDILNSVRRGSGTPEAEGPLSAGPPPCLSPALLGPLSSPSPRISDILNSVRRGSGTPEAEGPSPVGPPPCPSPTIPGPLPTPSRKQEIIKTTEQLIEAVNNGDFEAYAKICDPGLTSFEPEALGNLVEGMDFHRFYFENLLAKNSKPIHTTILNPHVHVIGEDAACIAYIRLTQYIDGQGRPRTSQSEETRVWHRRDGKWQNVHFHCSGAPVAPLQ
Hepatocyte growth factor receptor (Homo sapiens), sequence (P08581 whole entry): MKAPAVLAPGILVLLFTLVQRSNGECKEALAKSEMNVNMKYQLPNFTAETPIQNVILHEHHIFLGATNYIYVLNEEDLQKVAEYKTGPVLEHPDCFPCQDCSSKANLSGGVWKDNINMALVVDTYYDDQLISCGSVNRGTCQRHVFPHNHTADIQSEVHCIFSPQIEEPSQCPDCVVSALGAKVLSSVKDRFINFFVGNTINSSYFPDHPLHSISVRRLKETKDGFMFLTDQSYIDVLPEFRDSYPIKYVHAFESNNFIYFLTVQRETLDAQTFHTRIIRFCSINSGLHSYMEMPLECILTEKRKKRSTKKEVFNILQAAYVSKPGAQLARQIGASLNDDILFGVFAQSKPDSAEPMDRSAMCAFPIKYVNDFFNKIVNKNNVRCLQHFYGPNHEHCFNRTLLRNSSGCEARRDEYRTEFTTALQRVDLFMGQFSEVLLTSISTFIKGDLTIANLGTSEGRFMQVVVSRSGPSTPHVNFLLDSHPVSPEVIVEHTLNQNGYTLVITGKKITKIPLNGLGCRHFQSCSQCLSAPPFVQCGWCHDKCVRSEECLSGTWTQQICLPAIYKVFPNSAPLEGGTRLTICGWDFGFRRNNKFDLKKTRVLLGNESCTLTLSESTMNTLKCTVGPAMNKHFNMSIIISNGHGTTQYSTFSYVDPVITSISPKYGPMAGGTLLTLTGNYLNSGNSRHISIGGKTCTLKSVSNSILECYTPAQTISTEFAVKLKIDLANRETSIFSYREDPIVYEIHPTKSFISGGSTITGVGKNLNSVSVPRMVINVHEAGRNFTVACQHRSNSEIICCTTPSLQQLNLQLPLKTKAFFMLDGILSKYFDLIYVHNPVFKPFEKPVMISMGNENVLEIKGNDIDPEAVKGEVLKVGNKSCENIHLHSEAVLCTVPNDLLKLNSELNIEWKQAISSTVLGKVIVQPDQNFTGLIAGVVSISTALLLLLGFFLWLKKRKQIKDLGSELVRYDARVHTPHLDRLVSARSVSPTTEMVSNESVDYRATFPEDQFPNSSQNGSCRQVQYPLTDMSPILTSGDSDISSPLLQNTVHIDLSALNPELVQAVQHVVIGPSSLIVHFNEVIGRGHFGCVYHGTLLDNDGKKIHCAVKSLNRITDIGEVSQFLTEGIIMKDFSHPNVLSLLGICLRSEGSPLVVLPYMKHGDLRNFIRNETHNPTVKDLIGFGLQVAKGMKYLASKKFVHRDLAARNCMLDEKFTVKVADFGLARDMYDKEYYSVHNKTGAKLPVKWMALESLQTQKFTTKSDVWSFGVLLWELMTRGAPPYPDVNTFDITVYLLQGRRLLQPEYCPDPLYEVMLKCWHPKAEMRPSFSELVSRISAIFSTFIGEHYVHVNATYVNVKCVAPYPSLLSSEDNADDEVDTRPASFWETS
Leukocyte tyrosine kinase receptor (Homo sapiens), sequence (P29376 whole entry, the tested form may be a part): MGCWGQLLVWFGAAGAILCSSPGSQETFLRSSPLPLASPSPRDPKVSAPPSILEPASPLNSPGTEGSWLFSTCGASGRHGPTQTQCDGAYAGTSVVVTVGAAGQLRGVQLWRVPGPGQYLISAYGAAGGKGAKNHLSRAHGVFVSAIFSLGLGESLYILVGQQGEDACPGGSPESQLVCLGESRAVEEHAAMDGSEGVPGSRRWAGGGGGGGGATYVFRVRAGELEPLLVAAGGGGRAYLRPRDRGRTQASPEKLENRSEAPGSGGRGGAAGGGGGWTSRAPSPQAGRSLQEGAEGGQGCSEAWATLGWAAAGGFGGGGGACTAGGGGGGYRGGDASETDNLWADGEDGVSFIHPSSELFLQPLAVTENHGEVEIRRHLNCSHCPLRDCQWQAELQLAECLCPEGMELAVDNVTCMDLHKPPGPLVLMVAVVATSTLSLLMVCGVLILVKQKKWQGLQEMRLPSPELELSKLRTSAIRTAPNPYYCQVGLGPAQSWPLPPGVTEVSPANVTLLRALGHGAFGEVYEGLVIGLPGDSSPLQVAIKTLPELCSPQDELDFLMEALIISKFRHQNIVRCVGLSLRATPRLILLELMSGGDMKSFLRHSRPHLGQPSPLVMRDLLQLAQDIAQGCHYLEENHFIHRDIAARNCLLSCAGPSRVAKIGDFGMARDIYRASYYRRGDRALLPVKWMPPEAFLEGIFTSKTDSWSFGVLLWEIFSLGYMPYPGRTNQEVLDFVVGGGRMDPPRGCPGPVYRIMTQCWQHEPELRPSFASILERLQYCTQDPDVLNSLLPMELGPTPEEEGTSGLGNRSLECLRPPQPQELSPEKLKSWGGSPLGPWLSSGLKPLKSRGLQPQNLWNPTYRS
Tyrosine-protein kinase ITK/TSK (Homo sapiens), sequence (Q08881 whole entry, the tested form may be a part): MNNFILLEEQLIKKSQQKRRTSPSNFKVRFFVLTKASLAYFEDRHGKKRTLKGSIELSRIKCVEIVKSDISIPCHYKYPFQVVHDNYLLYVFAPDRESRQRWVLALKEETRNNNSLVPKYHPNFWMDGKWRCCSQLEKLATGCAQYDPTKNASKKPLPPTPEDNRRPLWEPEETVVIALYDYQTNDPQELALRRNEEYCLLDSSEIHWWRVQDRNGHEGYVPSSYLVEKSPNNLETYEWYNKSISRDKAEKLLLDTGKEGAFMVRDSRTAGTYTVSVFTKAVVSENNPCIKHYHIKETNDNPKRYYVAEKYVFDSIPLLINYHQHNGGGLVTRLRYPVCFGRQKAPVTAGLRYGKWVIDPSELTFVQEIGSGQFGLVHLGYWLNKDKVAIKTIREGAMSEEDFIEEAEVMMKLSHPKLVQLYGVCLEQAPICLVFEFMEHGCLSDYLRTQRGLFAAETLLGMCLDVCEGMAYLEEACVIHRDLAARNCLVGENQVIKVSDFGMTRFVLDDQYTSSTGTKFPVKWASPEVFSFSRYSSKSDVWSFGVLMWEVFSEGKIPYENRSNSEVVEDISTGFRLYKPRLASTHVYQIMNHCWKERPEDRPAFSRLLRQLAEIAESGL
Serine/threonine-protein kinase Nek11 (Homo sapiens), sequence (Q8NG66 whole entry): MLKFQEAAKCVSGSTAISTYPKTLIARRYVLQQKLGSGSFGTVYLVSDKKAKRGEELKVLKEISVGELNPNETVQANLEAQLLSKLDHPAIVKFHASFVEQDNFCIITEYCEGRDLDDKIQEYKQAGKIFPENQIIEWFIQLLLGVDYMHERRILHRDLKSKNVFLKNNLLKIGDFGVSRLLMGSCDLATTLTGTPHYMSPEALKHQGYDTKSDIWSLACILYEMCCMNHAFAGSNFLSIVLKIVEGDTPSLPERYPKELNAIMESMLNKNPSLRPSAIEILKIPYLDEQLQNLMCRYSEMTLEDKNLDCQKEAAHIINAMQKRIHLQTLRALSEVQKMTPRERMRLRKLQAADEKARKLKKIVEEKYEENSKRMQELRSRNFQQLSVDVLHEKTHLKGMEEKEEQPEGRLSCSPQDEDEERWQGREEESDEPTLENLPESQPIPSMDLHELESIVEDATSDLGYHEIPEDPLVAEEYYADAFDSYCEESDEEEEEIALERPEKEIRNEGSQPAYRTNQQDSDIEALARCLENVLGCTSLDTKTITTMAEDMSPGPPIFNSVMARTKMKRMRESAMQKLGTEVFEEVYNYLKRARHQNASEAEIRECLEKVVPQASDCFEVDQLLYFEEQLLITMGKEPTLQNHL

Cc1cc(C)c(CNc2nc(Cl)nc3c2ncn3C2CCCC2)c(=O)[nH]1
Activity (Tubulin (Homo sapiens)): Active | Activity [1]: 96.5% | Activity [2]: 98.5% | Activity [3]: 63 to 75% | Activity [4]: 84.5% | Activity [5]: 112% | Activity (HCT-116 [6]): Active | Activity (HCT-116 [7]): 0.846% | Activity [8]: 102% | Activity [9]: 80% | Activity [10]: 102% | Activity [11]: 108% | Activity (Homo sapiens): 109% | Activity [12]: 102% | Activity [13]: 99.5% | Activity [14]: 96.5% | Activity [15]: 122% | Activity [16]: 100% | Activity [17]: 97% | Activity [18]: 108% | Activity [19]: 106% | Activity (HCT-116 [20]): 3.57% | Activity [21]: 130%
